Reference: US20060040870A1, “Enhancement of apoptosis by caspase-9 inhibitors” (priority 2004, published 2006)
The star is where a group is joined. Cbz = O=C(OCc1ccccc1)*; CH2F = FC*

Tests used:
BLIN-4E cells = test: Apoptosis by Annexin V staining and flow cytometry, BLIN-4E; format: cell-based, human; settings: 50 μM, 18 hours
Method: FIG. 4 is a pair of graphs showing the effect of […] on various cell lines, as determined by Annexin V staining and flow cytometry. The cells included the B-cell precursor ALL cell lines […], and NALM-6, the RAMOS, RAJI, and DAUDI Burkitt lymphoma cell lines, the CCRF-CEM, JURKAT, and H9 T lymphoma cell lines, the K-562 erythroleukemia cell line, and resting or activated (i.e., CD3/CD28 cross-linked) normal human T cells. […] Flow cytometry. Quantitation of apoptotic events was conducted using a FACS Calibur (BD Immunocytometry Systems). All analyses were conducted on cells with lymphoid light scatter characteristics (i.e., low to medium forward scatter and low 90° side scatter). iii. Annexin V. […] Cells were stained according to the manufacturers recommendations.

[1] = system: caspase-9-deficient cells (BLIN-4L, RAMOS); test: Annexin V apoptosis in caspase-9 siRNA-treated BLIN-4L and RAMOS cells; format: cell-based, human; settings: BLIN-4L and RAMOS electroporated with caspase-9 siRNA, 50 μM, 8 hours
Method: This technology employs a double algorithm. […] In preliminary studies using FITC-conjugated control siRNA (Dharmacon), we determined that the BLIN cell lines could be transfected to >80% efficiency by electroporation. […] BLIN-4L were then diluted into 4.8 ml of X-VIVO 10 supplemented with 10% FBS and 5 ng/ml of IL-7.
The inventors performed further studies to determine whether caspase-9 can be completely knocked out by means of RNA interference (RNAi). […] The inventors discovered that C9i induces apoptosis in caspase-9-deficient cells. BLIN-4L (FIG. 7A) and RAMOS (FIG. 7B) cells were electroporated with 8 μM SMARTpool (Dharmacon Inc.) caspase-9 siRNA or control siRNA and allowed to recover for 3 days in X-VIVO/10% FCS supplemented with 5 ng/ml IL-7 (BLIN-4L), or RPMI/10% FCS (RAMOS). After 3 days, the electroporated populations were assayed for Annexin V binding (to determine background levels of apoptosis), and then cultured in DMSO or 50 μM C9i for 8 hours. The cells were then harvested, stained with Annexin V, and analyzed by flow cytometry. […] Thus, no caspase-9 was present at all in the cells. […] Thus, C9i clearly is acting on another molecule in the cell besides just caspase-9. Also, one can conclude that caspase-9 is not necessary for C9i-induced apoptosis to occur.

## Z-LEHD-fmk (Cbz-LEHD-CH2F; SMILES CC(C)C[C@H](NC(=O)OCc1ccccc1)C(=O)N[C@@H](CCC(=O)O)C(=O)N[C@@H](Cc1c[nH]cn1)C(=O)N[C@@H](CC(=O)O)C(=O)CF) [C9i]
BLIN-4E cells
  sensitivity (fold-increase in Annexin V+ cells vs DMSO): sensitive
[1]
  induction of apoptosis in caspase-9-deficient cells (Annexin V): still induced apoptosis
